In ChEMBL document CHEMBL3885881, “DrugMatrix”:

Species: Rattus norvegicus
Assay: DrugMatrix - Regimen: Daily Repeat
Assay type: toxicity, organism-based, Sprague-Dawley
Parameters: regimen Daily Repeat, gender Male, age 6-8 weeks
Details: in vivo, po, 20 mg/kg, route oral GAVAGE, dose level Low, vehicle 100 % WATER; for ABSOLUTE BASOPHIL / ABSOLUTE EOSINOPHIL / ABSOLUTE LYMPHOCYTE / ABSOLUTE MONOCYTE / ABSOLUTE SEGMENTED NEUTROPHIL / BASOPHIL / EOSINOPHIL / ERYTHROCYTE COUNT / HEMATOCRIT / HEMOGLOBIN / LEUKOCYTE COUNT / LYMPHOCYTE / MEAN CORPUSCULAR HEMOGLOBIN / MEAN CORPUSCULAR HEMOGLOBIN CONCENTRATION / MEAN CORPUSCULAR VOLUME / MONOCYTE / NEUTROPHIL / NUCLEATED RED BLOOD CELLS / PLATELET COUNT: tissue Blood
[1] = 72 h, tissue Plasma, time 3 day
[2] = 120 h, tissue Plasma, time 5 day

In the case of `COCCCOc1ccnc(C[S+]([O-])c2nc3ccccc3[nH]2)c1C` (stereo not given) [RABEPRAZOLE], the “ABSOLUTE BASOPHIL” value (72 h, time 3 day) is reported as 0 CELLS/uL, the “ABSOLUTE EOSINOPHIL” value (72 h, time 3 day) is reported as 317.67 CELLS/uL and the “ABSOLUTE LYMPHOCYTE” value (72 h, time 3 day) is reported as 11906.67 CELLS/uL. For the same molecule, the “ABSOLUTE MONOCYTE” value (72 h, time 3 day) was 267.33 CELLS/uL, the “ABSOLUTE SEGMENTED NEUTROPHIL” value (72 h, time 3 day) was 875 CELLS/uL and the BASOPHIL (72 h, time 3 day) was 0%. The EOSINOPHIL (72 h, time 3 day) was 2.33%, the “ERYTHROCYTE COUNT” value (72 h, time 3 day) was 5.67 x10E6/uL and the HEMATOCRIT (72 h, time 3 day) was 36.1%. For the same molecule, the HEMOGLOBIN (72 h, time 3 day) was 13.63 G/DL, the “LEUKOCYTE COUNT” value (72 h, time 3 day) was 13.37 x10E3/uL and the LYMPHOCYTE (72 h, time 3 day) was 89%. For the same molecule, the “MEAN CORPUSCULAR HEMOGLOBIN” value (72 h, time 3 day) was 24.07 pg, the “MEAN CORPUSCULAR HEMOGLOBIN CONCENTRATION” value (72 h, time 3 day) was 37.8 G/DL and the “MEAN CORPUSCULAR VOLUME” value (72 h, time 3 day) was 63.8 fL. The MONOCYTE (72 h, time 3 day) was 2%, the NEUTROPHIL (72 h, time 3 day) was 6.67% and the “NUCLEATED RED BLOOD CELLS” value (72 h, time 3 day) was 0 /100WBC. The “PLATELET COUNT” value (72 h, time 3 day) was 1283.67 x10E3/uL, the “ALANINE AMINOTRANSFERASE” value [1] was 42 u/L and the ALBUMIN [1] was 4.3 G/DL. The “ALKALINE PHOSPHATASE” value [1] was 427.67 u/L, the “ASPARTATE AMINOTRANSFERASE” value [1] was 83.33 u/L and the “BLOOD UREA NITROGEN” value [1] was 14.33 mg/dL. For the same molecule, the “CARBON DIOXIDE” value [1] was 27 mmol/L, the CHLORIDE [1] was 105.67 MEQ/L and the CHOLESTEROL [1] was 82.33 mg/dL. For the same molecule, the “CREATINE PHOSPHOKINASE” value [1] was 491.33 u/L, the CREATININE [1] was 0.16 mg/dL and the GLUCOSE [1] was 161.67 mg/dL. The “LACTATE DEHYDROGENASE” value [1] was 92.33 u/L, the LIPASE [1] was 9 u/L and the PHOSPHORUS [1] was 14.1 mg/dL. For the same molecule, the POTASSIUM [1] was 6.68 MEQ/L, the SODIUM [1] was 146.6 MEQ/L and the “TOTAL BILIRUBIN” value [1] was 0.2 mg/dL. For the same molecule, the “TOTAL PROTEIN” value [1] was 5.87 G/DL, the “URIC ACID” value [1] was 2.2 mg/dL and the “ABSOLUTE BASOPHIL” value (120 h, time 5 day) was 0 CELLS/uL. The “ABSOLUTE EOSINOPHIL” value (120 h, time 5 day) was 38.67 CELLS/uL, the “ABSOLUTE LYMPHOCYTE” value (120 h, time 5 day) was 10652 CELLS/uL and the “ABSOLUTE MONOCYTE” value (120 h, time 5 day) was 120.67 CELLS/uL. For the same molecule, the “ABSOLUTE SEGMENTED NEUTROPHIL” value (120 h, time 5 day) was 788.67 CELLS/uL, the BASOPHIL (120 h, time 5 day) was 0% and the EOSINOPHIL (120 h, time 5 day) was 0.33%. The “ERYTHROCYTE COUNT” value (120 h, time 5 day) was 5.6 x10E6/uL, the HEMATOCRIT (120 h, time 5 day) was 36.27% and the HEMOGLOBIN (120 h, time 5 day) was 13.6 G/DL. The “LEUKOCYTE COUNT” value (120 h, time 5 day) was 11.6 x10E3/uL, the LYMPHOCYTE (120 h, time 5 day) was 91.67% and the “MEAN CORPUSCULAR HEMOGLOBIN” value (120 h, time 5 day) was 24.27 pg. The “MEAN CORPUSCULAR HEMOGLOBIN CONCENTRATION” value (120 h, time 5 day) was 37.5 G/DL, the “MEAN CORPUSCULAR VOLUME” value (120 h, time 5 day) was 64.73 fL and the MONOCYTE (120 h, time 5 day) was 1%. The NEUTROPHIL (120 h, time 5 day) was 7%, the “NUCLEATED RED BLOOD CELLS” value (120 h, time 5 day) was 0 /100WBC and the “PLATELET COUNT” value (120 h, time 5 day) was 1417.67 x10E3/uL. For the same molecule, the “ALANINE AMINOTRANSFERASE” value [2] was 49.33 u/L, the ALBUMIN [2] was 4.17 G/DL and the “ALKALINE PHOSPHATASE” value [2] was 321 u/L. For the same molecule, the “ASPARTATE AMINOTRANSFERASE” value [2] was 105 u/L, the “BLOOD UREA NITROGEN” value [2] was 19 mg/dL and the “CARBON DIOXIDE” value [2] was 23 mmol/L. The CHLORIDE [2] was 110 MEQ/L, the CHOLESTEROL [2] was 67 mg/dL and the “CREATINE PHOSPHOKINASE” value [2] was 1368.67 u/L. The CREATININE [2] was 0.21 mg/dL, the GLUCOSE [2] was 203 mg/dL and the “LACTATE DEHYDROGENASE” value [2] was 225 u/L. It also gave an LIPASE [2] of 8.67 u/L, a PHOSPHORUS [2] of 13.93 mg/dL and a POTASSIUM [2] of 6.05 MEQ/L. For the same molecule, the SODIUM [2] was 148.17 MEQ/L, the “TOTAL BILIRUBIN” value [2] was 0.2 mg/dL and the “URIC ACID” value [2] was 1.77 mg/dL.
